One test is described as follows: Single layer film element contrast (gamma) reduction by DI(A)R couplers, KODAK FLEXICOLOR C-41. To be noted: DIR tested at 0.055 mmol/m^2, relative to non-inhibitor containing check. An excerpt: The mild inhibitor fragments that are used in this invention are defined as those that cause less than a 45% gamma reduction, or more preferably less than a 40% gamma reduction, relative to a non-inhibitor containing check when coated as the following single layer film element on a cellulose triacetate film support (coverages are in g/m^2):
Overcoat Gelatin at 2.79 and 0.02 bis-vinylsulfonemethylether
Imaging Layer Gelatin at 2.79
Magenta Image Coupler M-1 (dispersed at 80% by
weight in tricresyl phosphate and 20% by weight
N,N-dibutyl-2-butoxy-5-t-octylaniline) at 0.692
DIR being tested at 0.055 mmol/m^2 ( dispersed in twice
its weight in N,N-dibutyllauramide)
Green sensitized AgBrI at 1.08
Samples of each element were given a stepped exposure and processed in the KODAK FLEXICOLOR™ (C-41) process as described in British Journal of Photography Annual, 1988, pp 196-198. Contrast of the elements was determined using the maximum slope between any two density points.
Take `CCCCCCCCCCCCCCOc1ccccc1NC(=O)c1cc(Oc2ccc(CSc3nnnn3Cc3ccc(OC)cc3)cc2[N+](=O)[O-])c2ccccc2c1O` [CDIR-1]: the “% Contrast Reduction” value is recorded as -55.4%.
The same measure, in the same setting: the same measure for `CCC(Oc1ccc(C(C)(C)CC)cc1C(C)(C)CC)C(=O)Nc1ccc(N2N=C(N3CCCC3)C(Sc3nnnn3-c3ccccc3)C2=O)cc1` (stereo not shown) [CDIR-2]: -67.1%; for `CCCCCCCCCCCCCCOc1ccccc1NC(=O)c1cc(Sc2nnnn2-c2ccccc2)c2ccccc2c1O` [CDIR-6]: -75.4%.
On to `CCCOC(=O)Cn1nnnc1SC1C(=O)N(c2ccc(NC(=O)C(CC)Oc3ccc(C(C)(C)CC)cc3C(C)(C)CC)cc2)N=C1N1CCCC1` (stereo not shown) [IDIR-4], for which the “% Contrast Reduction” value was -22.6%.
Still for that read-out and setting: the same measure for `CCCCCCCCCCCCCCCCS(=O)(=O)Nc1ccc(Cl)c(NC(=O)C(C(=O)C(C)(C)C)n2ncc(SCC(=O)OCCCCCC)n2)c1` (stereo not shown) [CDIR-11]: -58.6%; for `CCCCCCCCCCCCCCCCS(=O)(=O)Nc1ccc(Cl)c(NC(=O)C(Oc2ccc([N+](=O)[O-])cc2CN(CC)C(=O)Sc2nnnn2-c2ccccc2)C(=O)C(C)(C)C)c1` (stereo not shown) [CDIR-7]: -63.9%.
On to `CCCCCCCCCCCCCCCCS(=O)(=O)Nc1cc(CSc2nnnn2CC(=O)OCCC)ccc1Oc1cc(C(N)=O)c(O)c2ccccc12` [IDIR-1], for which the “% Contrast Reduction” value was -34.5%.
Still for that read-out and setting: the same measure for `CCCCCCCCCCCCCCCCS(=O)(=O)Nc1ccc(Cl)c(NC(=O)C(C(=O)C(C)(C)C)n2nc(C)c(C(=O)OCCCCCC)n2)c1` (stereo not shown) [CDIR-10]: -53.8%; for `CCCCCCCCCCCCOC(=O)C(C)OC(=O)c1ccc(Cl)c(NC(=O)C(C(=O)Nc2cc(C(=O)OC(C)C(=O)OCCCCCCCCCCCC)ccc2Cl)n2nnc3cc(Cl)c(Cl)cc32)c1` (stereo not shown) [IDIR-7]: -20.0%; for `CCCCCCCCCCCCCCOc1ccccc1NC(=O)c1cc(Oc2ccc(CSc3nnnn3-c3ccccc3)cc2[N+](=O)[O-])c2ccccc2c1O` [CDIR-4]: -77.1%.
In the case of `CCCCCCOC(=O)c1nn(C2C(=O)N(c3ccc(NC(=O)C(CC)Oc4ccc(C(C)(C)CC)cc4C(C)(C)CC)cc3)N=C2C)nc1C` (stereo not shown) [CDIR-8], the “% Contrast Reduction” value was -49.2%.
For the compound `CCCCCCCCCCCCCCOc1ccccc1NC(=O)c1cc(Oc2ccc([N+](=O)[O-])cc2CN(C(=O)Sc2nnnn2-c2ccccc2)C(C)C)c2ccccc2c1O` [CDIR-3], the “% Contrast Reduction” value was -75.7%.
On to `CCCCCCCCCCCCOc1ccc(C)cc1NC(=O)c1cc(Oc2ccc(CSc3nnnn3CC(=O)OCCC)cc2[N+](=O)[O-])c2ccccc2c1O` [IDIR-3], for which the “% Contrast Reduction” value is -24.5%.
As to `CCCCCCCCCCC(Oc1ccc(S(=O)(=O)c2ccc(O)cc2)cc1)C(=O)Nc1ccc(N2N=C(C)C(n3nc(C)c(C(=O)OCCCCCC)n3)C2=O)cc1` (stereo not shown) [CDIR-9], the “% Contrast Reduction” value was -50.1%.
Same read-out and setting: the same measure for `CCCCCCCCCCCCCCOc1ccccc1NC(=O)c1cc(Oc2ccc(CSc3nnnn3-c3ccccc3)cc2[N+](=O)[O-])c2ccccc2c1O` [CDIR-5]: -70.5%; for `CCCCCCCCCCCCCCCCS(=O)(=O)Nc1ccc(Cl)c(NC(=O)C(Oc2ccc([N+](=O)[O-])cc2CN(CC)C(=O)Sc2nnnn2CC(=O)OCCC)C(=O)C(C)(C)C)c1` (stereo not shown) [IDIR-2]: -25.3%.
Take `CCCCCCCCCCCCCCOc1ccccc1NC(=O)c1cc(Sc2nnnn2CC)c2ccccc2c1O` [IDIR-8]: the “% Contrast Reduction” value is given as -2.4%.

A short description of the next test: Bilayer photographic element: interimage (Cg/Cb+g) and relative green sensitivity. Conditions: Table II, IDIR-2 in blue layer; IEM or CIEM at 7.2×10^-3 mmol/m^2. The procedure: Bilayer photographic elements were prepared by coating the following layers on a cellulose triacetate film support (coverages are in g/m^2). Unless otherwise noted, all comparative and inventive compounds were dispersed in twice their own weight of N,N-dibutyllauramide:
Layer 1 (Antihalation Layer): black colloidal elemental silver at 0.34 and gelatin at2.41.
Layer 2 (Receiver Layer): gelatin at 2.79, CDIR-2 at 0.03, coupler M-1 (dispersed as described previously) added at 0.045, comparison material (CIEM) or IEM added at 7.2×10^-3 mmol/m^2 (this corresponds to 1.67 mmol per mole silver as AgBr or 0.96 mmol per mole of silver) dispersed in twice its own weight of N,N-dibutyllauramide and 0.81 green sensitized AgIBr tabular emulsion.
Layer 3 (Interlayer): gelatin at 0.64, ILS-1 at 0.11 and FD-1 at 0.11.
Layer 4 (Causer Layer): gelatin at 2.79, coupler Y-1 at 0.91, 0.79 blue sensitized AgIBr tabular emulsion and the DIR at 0.11 mmol/m^2.
Layer 5 (Overcoat): gelatin at 2.79 and 0.02 bis-vinylsulfonemethylether.
Samples of each element were given a stepped exposure of either green light only or blue and green light combined and processed in the KODAK FLEXICOLOR (C-41) process as described in British Journal of Photography Annual, 1988, pp196-198. Contrast of the elements was determined using the maximum slope between any two density points. In this test, the ratio of the contrast of the green only exposure to the contrast of the green of a blue and green exposure (Cg /Cb+g) is a measure of the interimage. A higher ratio means more inhibition originating from the blue and affecting the green record.
Another set of bilayer experiments were generated in a similar manner to show the effect of IEM laydown (as mmol per mol silver) and DIR variations.
Consider `O=C(Nc1cccc(Oc2ccccc2)c1)c1ccc2[nH]nnc2c1` [CIEM-9], for which the “Cg /Cb+g (interimage ratio)” value was found to be 1.30.
Same read-out and setting: next, `CCCCCCCC(=O)Nc1ccc2[nH]nnc2c1` [CIEM-1]: 1.25; `CCCCCCCCc1nc2ccccc2[nH]1` [CIEM-5]: 1.19.
The same measure, in the same setting: the same measure for `CCCSCCCOC(=O)c1ccc2[nH]nnc2c1` [CIEM-7]: 1.26.
As to `CCCCCCCCCCCC(=O)Nc1ccc2[nH]nnc2c1` [IEM-C], the “Cg /Cb+g (interimage ratio)” value was 1.64.
As for `O=C(Oc1ccccc1)c1ccc2[nH]nnc2c1` [CIEM-12], the “Cg /Cb+g (interimage ratio)” value is reported as 1.24.
`CCCCCCCCCC(=O)Nc1ccc2[nH]nnc2c1` [IEM-B]: the “Cg /Cb+g (interimage ratio)” value worked out at 1.39.
As for `CCCCCCCCCCC(Oc1ccc(S(=O)(=O)c2ccc(O)cc2)cc1)C(=O)Nc1ccc2[nH]nnc2c1` (stereo not shown) [IEM-D], the “Cg /Cb+g (interimage ratio)” value turned out to be 1.49.
With `CCCCCCCCCCCCSc1nc2ccccc2[nH]1` [CIEM-16], the “Cg /Cb+g (interimage ratio)” value is recorded as 1.27.
With `CCCCCCCCCOC(=O)c1nc[nH]n1` [CIEM-3], the “Cg /Cb+g (interimage ratio)” value is on record as 1.23.
Turning to `O=S(=O)(NCCc1ccccc1)c1ccc2[nH]nnc2c1` [CIEM-6], the “Cg /Cb+g (interimage ratio)” value amounted to 1.24.
Still for that read-out and setting: the same measure for `CCCCCCCCCCCCCCCc1cccc(OCCCCNC(=O)c2ccc3[nH]nnc3c2)c1` [CIEM-15]: 1.26; for `CCCCCCCCCCCCSc1nc[nH]n1` [IEM-H]: 1.44.
In the case of `CCCCC(CC)CNC(=O)c1ccc2[nH]nnc2c1` (stereo not shown) [CIEM-2], the “Cg /Cb+g (interimage ratio)” value came out at 1.26.
On the same count and under the same terms, the same measure for `CCCCCCSCCOC(=O)c1nc[nH]n1` [CIEM-4]: 1.19.
Same read-out and setting: next, `O=C(c1ccc2[nH]nnc2c1)N1CCCc2ccccc21` [CIEM-10]: 1.18; `CCC(C)(C)c1ccc(OCCCCC(=O)Nc2ccc3c(c2)nnn3C)c(C(C)(C)CC)c1` [CIEM-14]: 1.31; `CCC(C)(C)c1ccc(OCCCCNC(=O)CSc2nc3ccccc3[nH]2)c(C(C)(C)CC)c1` [CIEM-17]: 1.23.
`CCC(C)(C)c1ccc(OCCCCC(=O)Nc2ccc3c(c2)nnn3C(=O)N2CCOCC2)c(C(C)(C)CC)c1` [CIEM-13]: the “Cg /Cb+g (interimage ratio)” value was 1.30.
Still for that read-out and setting: next, `CCCCc1ccc(NC(=O)c2ccc3[nH]nnc3c2)cc1` [CIEM-11]: 1.26; `CCCCCCCCCCOC(=O)CSc1nnc[nH]1` [CIEM-8]: 1.22.

The test is the same for the next values; noted with them: bilayer, --N--H group removed.
Consider `CCC(C)(C)c1ccc(OCCCCC(=O)Nc2ccc3c(c2)nnn3C)c(C(C)(C)CC)c1` [CIEM-14], for which the “interimage effect” value is listed as “the effect is insufficient”.
Turning to `CCC(C)(C)c1ccc(OCCCCC(=O)Nc2ccc3c(c2)nnn3C(=O)N2CCOCC2)c(C(C)(C)CC)c1` [CIEM-13], the “interimage effect” value is “the effect is insufficient”.

These data come from patent publication US6190848A, “Color photographic element containing ballasted triazole derivative and inhibitor releasing coupler” (priority 1999, dated 2001).
